“And” between values parts separate entries of the source, which are not always exact repeats. Equal entries are not always repeated. Where two headings read alike, the source gives them in different places.
What was measured:
[1] = test system: OMP25–msGFP–HaloTag fusion protein in HEK293T cells; test: Pulse–chase HaloTag labeling efficiency, SDS–PAGE/in-gel fluorescence; type: cell-based; settings: 2 h, mean ± SEM
Experimental: PBS, 2% (v/v) SDS, 1% (v/v) Triton x-100, 10 mM EDTA, and protease inhibitors (2 mM PMSF, aprotinin, leupeptin, and pepstatin A). Samples were then incubated at 50 °C for 3–4 min after the addition of Laemmli sample buffer (SB; Bio-Rad, 1610747) with β-mercaptoethanol (Bio-Rad, 1610710). For protein detection, 10–20 µL of the sample was subjected to SDS-PAGE, using 10% Tris-Glycine gels (TGX) (Bio-Rad, 5671034) with Tris-Glycine buffer (Bio-Rad, 1610732). […]
Quantification of HaloTag labeling efficiency using in-gel fluorescence. HEK293T cells were cultured, incubated and transfected with pF(UG) hSyn HaloTag-TEV-4×GS-msGFP-mito using lipofectamine LTX reagent as described above. To examine saturation of HaloTag, we screened for fluorescence plateau using 1 μM of JF479-HaloTag ligand,4 JF549-HaloTag ligand (2HTL) and […]
(2HTL) and JF608-HaloTag ligand (3HTL) reached a fluorescence plateau, and they were chosen as saturating counter stains or “chase” dyes for examining the labeling efficiency of biotin-JF-HaloTag ligands (13HTL–16HTL). Next, we developed an in-gel assay to independently quantitate labeling efficiencies of 13HTL–16HTL. We used JF549-HaloTag ligand (2HTL) as chase for evaluating biotin-JF608-HaloTag ligand (14HTL), biotin-JF646-HaloTag ligand (15HTL), and biotin-JF635-HaloTag ligand (16HTL). We used JF608-HaloTag ligand (3HTL) as chase for evaluating biotin-JF549-HaloTag ligand (13HTL). Each experiment consisted of testing the biotin variants 13HTL–16HTL at 100 nM and 1 μM with an incubation time of 2 h and a chase labeling incubation of 1 μM for 0.5 h. The 0.5 h chase labeling period was included with the 2 h total incubation. Each experiment consisted of the following conditions: untransfected cells; (A) transduced, but no dye; (B) non-biotinylated variant of primary label at 1 μM for 0.5 h; (C) the nonbiotinylated version of the chase JF dye at 1 μM for 0.5 h; (D) 100 nM of the nonbiotinylated version of the primary label for 2 h; (E) 100 nM of the biotinylated version of primary label for 2 h; (F) 1 μM of the nonbiotinylated version of the primary label for 2 h; (G) 1 μM of the biotinylated version of primary label for 2 h; and (H) 1 μM of the non-biotinylated version of the chase JF dye at 1 μM for 2 h. This last condition H was the same as condition C but with a longer incubation (2 h vs. 0.5 h) to allow independent verification of the chase saturation using 0.5 h incubation. Samples D–G were incubated with a nonbiotinylated chase dye at 1 μM for 0.5 h. Cells were washed and protein lysates were harvested using Bio-Rad SDS-PAGE products as described above. Specifically, cells were lysed using protein lysis buffer as described above, and adding XT Sample Buffer (Bio-Rad, 1610791) and XT Reducing Agent (Bio-Rad, 1610792). Samples were heated at 72 °C for 5 min. Samples were then loaded onto a 4–12% Criterion XT Bis-Tris gel (Bio-Rad, 3450124) and ran at 150 V for approximately 1 h. Gels were then imaged on a Chemidoc MP imager (Bio-Rad) using orange, red, and far-red filters. Bands representing HaloTag ligand were quantified by densitometry using […]
(§1) labeling efficiency calculations, bands representing saturating chase dye fluorescence (e.g., JF549) were compared to saturating primary dye fluorescence allowing estimation of the amount of […]
Where F is the fraction of HaloTag protein labeled, Ce is the experimental chase dye fluorescence signal after incubation with pulse biotin-JF-HaloTag ligand, and Cs is the saturating chase dye fluorescence without incubation with a pulse ligand.
Neuro2a cell culture, labeling, lattice light sheet microscopy (LLSM), and confocal microscopy. Neuro2a cells (ATCC, CCL-131) were cultured in Eagle's minimum essential medium (MEM, phenol red-free; Life Technologies) supplemented with 10% (v/v) fetal bovine serum (FBS), and maintained at 37 °C in a humidified 5% (v/v) CO2 environment. Cells were transiently transfected using nucleofection (Lonza) with plasmids constitutively expressing

[2] = test system: sfGFP–BRD4 in Neuro2a cells expressing coilin–HaloTag; test: BRD4 translocation to coilin–HaloTag, LLSM; type: cell-based
Experimental: The ability of JQ1 ligands to enter living cells and recruit BRD4 to defined genomic regions was evaluated using lattice light sheet fluorescence microscopy (LLSM). Neuro2a cells were transiently transfected with plasmids encoding three fusion proteins: i) HaloTag protein fused to coilin, […]; ii) superfolder GFP–BRD4; and iii) histone H2B–mCherry as a nuclear marker. The Cajal body component coilin localizes in distinct puncta in the nucleus ([62]) compared to the diffuse euchromatic distribution of BRD4. […]
Neuro2a cell culture, labeling, lattice light sheet microscopy (LLSM), and confocal microscopy. […]
Full 3D volumes at multiple stage positions were collected at 2 minute intervals for 90 minutes total. […] The recruitment of histone H3.3 was assessed by imaging after 24 h incubation with 19HTL. […]
LLSM imaging processing. Raw image data volumes were deskewed and rotated, then empirically deconvolved using a Richardson-Lucy maximum likelihood algorithm using experimentally measured PSFs for each color channel for 30 iterations. […] These segmentation masks were then used to isolate each nucleus for further quantitative analyses. […] The amount of BRD4 signal was then assessed in- versus outside HaloTag labeled domains throughout the 90-min time-lapse acquisition. […]

[3] = Determination of logD7.4 (miniaturized shake flask, octanol–PBS); type: physicochemical; settings: pH 7.4
Experimental: Detailed descriptions of the materials and methods are provided in the supporting information. Multifunctional rhodamine–HaloTag ligands (13HTL–16HTL and 18HTL–20HTL) were synthesized using palladium-catalyzed cross-coupling reactions to install 3-carboxyazetidine moieties onto rhodamine scaffolds, followed by amide bond formation with biotin–PEG2–NH2, (S)-JQ1–PEG2–NH2, or (R)-JQ1–PEG2–NH2. Spectroscopic properties (λabs, λem, ε, and Φf) were determined in 10 mM HEPES, pH 7.3. The lactone–zwitterion equilibrium constants (KL–Z) were measured in 1:1 (v/v) dioxane–water mixtures. Octanol–water distribution coefficients (logD7.4) were determined by miniaturized shake-flask partitioning experiments using PBS (pH 7.4) and 1-octanol. Cell culture experiments employed HEK293T, U2OS, and Neuro2a cells transfected with HaloTag fusion constructs and labeled with ligands (100 nM to 1 μM, 0.5 to 2 h at 37 °C), followed by fluorescence microscopy using confocal or lattice light-sheet microscopy. Affinity purification studies utilized streptavidin magnetic beads to capture biotin-labeled HaloTag conjugates, with analysis by SDS-PAGE and in-gel fluorescence detection. […]
Reported values are averages of at least two measurements.
Determination of logD7.4. The log of distribution coefficients at pH 7.4 was determined in octanol–phosphate-buffered saline (PBS) using a miniaturized shake flask setup described previously.6, 7 Briefly, 150 mL each of octanol and PBS pH 7.4 were stirred vigorously for 12–16 h. The layers were allowed to stand for at least 24 h for phase separation. The separated layers were collected and served as PBS saturated with octanol (PBS*) and octanol saturated with PBS (octanol*). Stock solutions (1 mM or 5 mM) of ligands were prepared in DMSO and diluted in PBS* to obtain 1 μM or 10 μM (3–5 mL) of the standard (std). This standard was used to prepare appropriate dilutions using octanol*, in triplicate, in 2-mL glass vials. The leftover standard was used to determine the standard concentration (Cstd). The vials were vortexed for 1 min and shaken horizontally at 700 rpm for 2 h. The vials were then shaken upright at 150 rpm for 2 h to allow the phases to separate. The octanol* layer was pipetted out, and the PBS* layer was used for further analyses. The concentrations of ligands in the standard and PBS* (CPBS*) were determined via fluorescence measurements of 200 μL of PBS* or std in 96-well plates on the Cytation 5 Multimode Plate Reader (BioTek). For Si-rhodamine containing ligands, 2–20 μL of […]
trifluoroacetic acid was added to each well of the 96-well plate prior to the fluorescence measurements. Reported values are averages of at least two measurements. The logD7.4 was obtained as described previously using equation 2: logD = log *’(" × r − 1. +)*+∗ / (2) […]
where Cstd is the standard concentration in PBS, CPBS* is the concentration in PBS after partitioning, r is the dilution factor of the standard solution, VPBS* is the volume of PBS used in the partitioning, and Voctanol* is the volume of octanol used in the partitioning.
Plasmid construction for mitochondria imaging and affinity purification. HaloTag, amplified from the pHTC HaloTag CMV-neo Vector (Promega; G7711) and monomeric-superfolder green fluorescent protein (msGFP; lab stock), was fused to the mitochondrial targeting signal from OMP25,8 interspacing flexible GS(GSS)4 linkers between each domain by PCR Splicing by Overlap Extension (SOE). This construct was subcloned into hSynapsin promoter bearing a copy of FUGW.9 FUGW was a gift from David Baltimore (Addgene plasmid # 14883; RRID:
Addgene_14883).10 This construct was designated as pF(UG) hSyn HaloTag-TEV-4×GS-msGFP- […]
HEK293T cell culture. HEK293T cells (ATCC) were passaged before 80% confluency by trypsinization (Corning; 25-053-CI) and trituration. The cell suspension was then plated on glass coverslips (Warner instruments; 64-0734, CS-18R17) coated with poly-D-lysine (Thermofisher; […]

[4] = 1:1 (v/v) dioxane–water, cited from earlier work
[5] = parameters: method as in PMID 28869757, PMID 25599551; settings: 10 mM HEPES, pH 7.3; ref 27 and 50; cited from earlier work
[6] = test system: sfGFP–BRD4 in Neuro2a cells expressing HP1a–HaloTag; test: BRD4 translocation to HP1a–HaloTag, LLSM; type: cell-based; settings: 90 min
Source text: Given its lower fluorescence background and more efficacious recruitment of BRD4, we focused on (S)-JQ1–JF635–HaloTag ligand (19HTL) for subsequent experiments. To test the generality of 19HTL in recruiting BRD4, we imaged cells expressing heterochromatin protein 1a (HP1a) fused to HaloTag (Fig. 7A). HP1a is localized within constitutive heterochromatin as its N-terminal chromodomain binds to methylated histone H3 ([65]).
(2HTL) and JF608-HaloTag ligand (3HTL) reached a fluorescence plateau, and they were chosen as saturating counter stains or “chase” dyes for examining the labeling efficiency of biotin-JF-HaloTag ligands (13HTL–16HTL). Next, we developed an in-gel assay to independently quantitate labeling efficiencies of 13HTL–16HTL. […] Bands representing HaloTag ligand were quantified by densitometry using […]
as §1
Where F is the fraction of HaloTag protein labeled, Ce is the experimental chase dye fluorescence signal after incubation with pulse biotin-JF-HaloTag ligand, and Cs is the saturating chase dye fluorescence without incubation with a pulse ligand. […]

Molecule	logD [3]	Φf [5]	ε [5]	λabs [5] [nm]	λem [5] [nm]	further results
O=C(CCCC[C@@H]1SC[C@@H]2NC(=O)N[C@@H]21)NCCOCCOCCCCCCCl [17HTL, biotin–HaloTag ligand, reference compound]	–	–	–	–	–	labeling efficiency ([1]; 100 nM pulse): 32.0 ± 9.3%; labeling efficiency ([1]; 1 µM pulse): 92.1 ± 0.4%
Cc1sc2c(c1C)C(c1ccc(Cl)cc1)=N[C@@H](CC(=O)OC(C)(C)C)c1nnc(C)n1-2 [JQ1, (S)-JQ1, reference compound]	–	–	–	–	–	effect of excess free JQ1 on BRD4 recruitment by 19HTL ([2]; 25 μM (S)-JQ1 with 20 nM 19HTL, coilin–HaloTag, confocal): inhibited BRD4 recruitment
C[Si]1(C)c2cc(N3CCC3)ccc2C2(OC(=O)c3ccccc32)c2ccc(N3CCC3)cc21 [compound 5, Janelia Fluor 646]	3.98	0.54	5,000 M^−1cm^−1	646	664	KL–Z ([4]; parent dyes, ref 27 and 50): 0.0014
C[Si]1(C)c2cc(N3CC(F)C3)ccc2C2(OC(=O)c3ccccc32)c2ccc(N3CC(F)C3)cc21 [compound 6, JF635]	4.1	0.66	~ 400 M^−1cm^−1	635	652	KL–Z [4]: ≈ 0.0001 and 0.0001
(R)-JQ1–JF635–HaloTag ligand [20HTL]	–	–	–	–	–	BRD4 recruitment to coilin–HaloTag sites ([2]; Neuro2a cells, LLSM, 90 min): no GFP–BRD4 recruitment; BRD4 translocation to HP1a–HaloTag [6]: no GFP–BRD4 recruitment
